The values that follow come from patent US20230113037A1 (Bayer Aktiengesellschaft, priority 2019, published 2023).

Test [1] has as its target T1, AHR (Homo sapiens, UniProt P35869).
T1 construct: U87 MG glioblastoma cells (ATCC #HTB-14) endogenously expressing AHR; endogenous in cells; host or cells: U87 MG glioblastoma cells (ATCC #HTB-14)
T1 sequence (P35869 11-848): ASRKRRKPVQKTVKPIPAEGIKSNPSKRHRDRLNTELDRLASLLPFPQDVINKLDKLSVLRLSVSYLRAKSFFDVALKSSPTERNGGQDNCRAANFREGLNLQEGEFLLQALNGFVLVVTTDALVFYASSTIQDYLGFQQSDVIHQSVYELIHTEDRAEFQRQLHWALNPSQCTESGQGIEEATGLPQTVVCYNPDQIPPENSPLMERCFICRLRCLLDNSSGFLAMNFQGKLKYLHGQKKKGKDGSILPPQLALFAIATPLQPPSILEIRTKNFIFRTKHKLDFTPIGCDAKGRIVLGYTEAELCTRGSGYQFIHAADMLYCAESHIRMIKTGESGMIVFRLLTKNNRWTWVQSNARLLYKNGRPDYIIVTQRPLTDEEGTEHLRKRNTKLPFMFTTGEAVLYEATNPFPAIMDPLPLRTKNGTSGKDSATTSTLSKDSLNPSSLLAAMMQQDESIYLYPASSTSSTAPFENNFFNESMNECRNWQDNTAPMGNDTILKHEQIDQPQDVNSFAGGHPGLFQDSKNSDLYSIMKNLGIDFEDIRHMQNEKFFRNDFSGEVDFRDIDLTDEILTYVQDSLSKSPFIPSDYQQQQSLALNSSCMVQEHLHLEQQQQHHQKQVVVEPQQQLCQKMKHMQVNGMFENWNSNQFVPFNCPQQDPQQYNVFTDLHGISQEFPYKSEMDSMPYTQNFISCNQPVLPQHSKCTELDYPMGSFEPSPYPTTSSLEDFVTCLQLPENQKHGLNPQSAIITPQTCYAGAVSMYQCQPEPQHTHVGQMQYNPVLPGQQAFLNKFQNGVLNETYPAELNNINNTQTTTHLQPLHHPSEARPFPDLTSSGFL
Nature of the test: In vitro assay 1: antagonism in human cell line (AHR transactivation, firefly luciferase reporter, kynurenic acid prestimulated). The conditions noted are these: AHR Antagonism Human IC50 [M]. Type of test: cell-based. In short, it runs like this: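 Antagonism measured as loss of kynurenic acid-driven firefly luciferase from DRE reporter in stably transfected U87 MG cells; constitutive Renilla signal monitors cytotoxicity. Positive/negative control normalization, staurosporine 5 μM with 150 μM kynurenic acid as inhibition control; replicates given as mean or median.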
On the technique in general: Reporter assays use an easily measured gene product as a stand-in for the process of interest.

Test [2] has as its target T2, AHR (Mus musculus, UniProt P30561).
T2 sequence (P30561 1-848 P471L/N533S/M589L): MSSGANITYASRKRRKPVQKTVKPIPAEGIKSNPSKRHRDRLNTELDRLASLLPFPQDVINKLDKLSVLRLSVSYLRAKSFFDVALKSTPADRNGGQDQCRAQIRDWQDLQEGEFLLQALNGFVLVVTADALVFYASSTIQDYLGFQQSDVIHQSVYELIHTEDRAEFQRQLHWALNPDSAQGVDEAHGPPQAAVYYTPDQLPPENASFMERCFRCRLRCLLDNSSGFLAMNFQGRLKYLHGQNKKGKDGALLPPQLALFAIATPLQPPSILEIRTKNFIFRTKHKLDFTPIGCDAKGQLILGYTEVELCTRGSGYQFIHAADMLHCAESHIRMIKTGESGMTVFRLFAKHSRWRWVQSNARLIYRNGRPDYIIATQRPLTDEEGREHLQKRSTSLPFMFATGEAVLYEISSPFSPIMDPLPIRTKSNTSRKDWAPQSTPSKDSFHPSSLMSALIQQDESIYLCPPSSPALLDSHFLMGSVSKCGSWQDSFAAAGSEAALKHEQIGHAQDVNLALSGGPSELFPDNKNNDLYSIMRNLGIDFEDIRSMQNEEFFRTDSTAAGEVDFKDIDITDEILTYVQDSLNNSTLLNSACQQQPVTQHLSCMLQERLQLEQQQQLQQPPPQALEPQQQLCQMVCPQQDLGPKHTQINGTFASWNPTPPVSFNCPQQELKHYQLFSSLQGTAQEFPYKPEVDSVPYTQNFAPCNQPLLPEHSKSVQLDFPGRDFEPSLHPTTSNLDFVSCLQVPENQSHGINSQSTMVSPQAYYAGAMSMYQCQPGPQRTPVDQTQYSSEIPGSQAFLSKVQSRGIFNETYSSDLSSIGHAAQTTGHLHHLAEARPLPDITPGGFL
Put plainly: In vitro assay 3: antagonism in mouse cell line (AHR transactivation, firefly luciferase reporter, kynurenic acid prestimulated). It is filed as cell-based. The gist of the method: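 Kynurenic acid-prestimulated mouse reporter cells; stable AHR-inducible firefly luc construct with DRE sites in promoter. No-agonist wells = positive inhibition ctrl. Luminescence normalized to pos/neg ctrls; n>1 reported as mean or median.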

Setting [3] is: mouse Hepa 1c1c7 cells, 200 μM kynurenic acid, 20 hours, read-out: AHR Antagonism Mouse IC50.
Where [4] appears, read: Hepa 1c1c7 cells, 200 μM kynurenic acid, 20 hours, firefly luciferase reporter, read-out: AHR Antagonism Mouse IC50.

Where two headings read alike, the source gives them in different places.

As to `C[C@@H](Nc1nc2ccccc2c2nc(-c3cnn(C)c3)nn12)C(=O)NCCN(C)C` [Example 776, N-[2-(dimethylamino)ethyl]-N^2-[2-(1-methyl-1H-pyrazol-4-yl)[1,2,4]triazolo[1,5-c]quinazolin-5-yl]-D-alaninamide], the IC50 (in general, the concentration that inhibits the measured activity by half) was found to be 2.92e-06 M against AHR [1] and 1020 nM at AHR [2] (setting [3]).

With `COc1ccc(-c2nc3c4ccccc4nc(N[C@H](C)C(=O)N4CCN(C)CC4)n3n2)cc1` [Example 777, (2R)-2-{[2-(4-methoxyphenyl)[1,2,4]triazolo[1,5-c]quinazolin-5-yl]amino}-1-(4-methylpiperazin-1-yl)propan-1-one], the IC50 against AHR [1] amounted to 1.8e-09 M; on AHR [2] (setting [3]), 2.21 nM.

As to `COc1ccc(-c2nc3c4ccccc4nc(N[C@H](C)C(=O)N4CCOCC4)n3n2)cc1` [Example 778, (2R)-2-{[2-(4-methoxyphenyl)[1,2,4]triazolo[1,5-c]quinazolin-5-yl]amino}-1-(morpholin-4-yl)propan-1-one], the IC50 on AHR [1] is 2.09e-09 M; on AHR [2] (setting [3]) it was 4.32 nM.

`COc1ccc(-c2nc3c4ccccc4nc(N[C@H](C)C(=O)NCCN4CCOCC4)n3n2)cc1` [Example 779, N^2-[2-(4-methoxyphenyl)[1,2,4]triazolo[1,5-c]quinazolin-5-yl]-N-[2-(morpholin-4-yl)ethyl]-D-alaninamide]: the results for the IC50 at AHR [1] and at AHR [2] (setting [3]) were 4.3e-09 M and 5.96 nM, respectively.

On to `COc1ccc(-c2nc3c4cccc(Br)c4nc(N[C@H](C)C(=O)NCCN4CCN(C)CC4)n3n2)cc1` [Example 780, N^2-[7-bromo-2-(4-methoxyphenyl)[1,2,4]triazolo[1,5-c]quinazolin-5-yl]-N-[2-(4-methylpiperazin-1-yl)ethyl]-D-alaninamide], for which the IC50 worked out at 4.91e-09 M against AHR [1] and 5.55 nM on AHR [2] (setting [3]).

For `COc1ccc(-c2nc3c4cccc(Br)c4nc(N[C@H](C)C(=O)NCCN4CCOCC4)n3n2)cc1` [Example 781, N^2-[7-bromo-2-(4-methoxyphenyl)[1,2,4]triazolo[1,5-c]quinazolin-5-yl]-N-[2-(morpholin-4-yl)ethyl]-D-alaninamide], the IC50 against AHR [1] was 1.17e-09 M; at AHR [2] (setting [3]), 2.09 nM.

For the compound `C[C@@H](Nc1nc2c(Br)cccc2c2nc(-c3cnn(C)c3)nn12)C(=O)NCCN1CCOCC1` [Example 782, N^2-[7-bromo-2-(1-methyl-1H-pyrazol-4-yl)[1,2,4]triazolo[1,5-c]quinazolin-5-yl]-N-[2-(morpholin-4-yl)ethyl]-D-alaninamide], the values for the IC50 against AHR [1] and on AHR [2] (setting [3]) were 1.29e-07 M and 79.7 nM, respectively.

For the compound `C[C@@H](Nc1nc2c(Br)cccc2c2nc(-c3cnn(C)c3)nn12)C(=O)NCCN1CCN(C)CC1` [Example 783, N^2-[7-bromo-2-(1-methyl-1H-pyrazol-4-yl)[1,2,4]triazolo[1,5-c]quinazolin-5-yl]-N-[2-(4-methylpiperazin-1-yl)ethyl]-D-alaninamide], the IC50 on AHR [1] (firefly luciferase reporter) was determined as 1.71e-07 M; on AHR [2] (setting [4]), 291 nM.

For `COc1ccc(-c2nc3c4ccccc4nc(N[C@H](C)C(=O)NCC(C)(C)N)n3n2)cc1` [Example 784, N-(2-amino-2-methylpropyl)-N^2-[2-(4-methoxyphenyl)[1,2,4]triazolo[1,5-c]quinazolin-5-yl]-D-alaninamide], the IC50 was 9.16e-08 M against AHR [1] (firefly luciferase reporter) and 48.1 nM at AHR [2] (setting [4]).

For `C[C@@H](Nc1nc2c(Br)cccc2c2nc(-c3cnn(C)c3)nn12)C(=O)N1CCOCC1` [Example 785, (2R)-2-{[7-bromo-2-(1-methyl-1H-pyrazol-4-yl)[1,2,4]triazolo[1,5-c]quinazolin-5-yl]amino}-1-(morpholin-4-yl)propan-1-one], the IC50 came to 2.38e-08 M at AHR [1] (firefly luciferase reporter) and 32.2 nM at AHR [2] (setting [4]).

With `C[C@@H](Nc1nc2c(Br)cccc2c2nc(-c3cnn(C)c3)nn12)C(=O)N1CCN(C)CC1` [Example 786, (2R)-2-{[7-bromo-2-(1-methyl-1H-pyrazol-4-yl)[1,2,4]triazolo[1,5-c]quinazolin-5-yl]amino}-1-(4-methylpiperazin-1-yl)propan-1-one], the IC50 is 2.2e-08 M on AHR [1] (firefly luciferase reporter) and 22.1 nM at AHR [2] (setting [4]).

In the case of `COc1ccc(-c2nc3c4ccccc4nc(N[C@H](C)C(=O)NCCN(C)C)n3n2)cc1` [Example 787, N-[2-(dimethylamino)ethyl]-N^2-[2-(4-methoxyphenyl)[1,2,4]triazolo[1,5-c]quinazolin-5-yl]-D-alaninamide], the IC50 against AHR [1] (firefly luciferase reporter) stood at 2.26e-08 M; at AHR [2] (setting [4]), 38.2 nM.

As to `COc1ccc(-c2nc3c4cccc(Br)c4nc(N[C@H](C)C(=O)N4CCN(C)CC4)n3n2)cc1` [Example 788, (2R)-2-{[7-bromo-2-(4-methoxyphenyl)[1,2,4]triazolo[1,5-c]quinazolin-5-yl]amino}-1-(4-methylpiperazin-1-yl)propan-1-one], the IC50 was 4.64e-10 M at AHR [1] (firefly luciferase reporter) and 2.08 nM at AHR [2] (setting [4]).

`COc1ccc(-c2nc3c4cccc(Br)c4nc(N[C@H](C)C(=O)NCC(C)(C)N)n3n2)cc1` [Example 789, N-(2-amino-2-methylpropyl)-N^2-[7-bromo-2-(4-methoxyphenyl)[1,2,4]triazolo[1,5-c]quinazolin-5-yl]-D-alaninamide]: the IC50 on AHR [1] (firefly luciferase reporter) came out at 4.3e-08 M; on AHR [2] (setting [4]), 17.1 nM.

For `C[C@@H](Nc1nc2c(Br)cccc2c2nc(-c3cnn(C)c3)nn12)C(=O)NCC(C)(C)N` [Example 790, N-(2-amino-2-methylpropyl)-N^2-[7-bromo-2-(1-methyl-1H-pyrazol-4-yl)[1,2,4]triazolo[1,5-c]quinazolin-5-yl]-D-alaninamide], the IC50 on AHR [1] (firefly luciferase reporter) came to 4.14e-07 M; at AHR [2] (setting [4]) it was 402 nM.

With `CC[C@@H](Nc1nc2ccccc2c2nc(-c3cn(C)nn3)nn12)C(N)=O` [Example 793, (2R)-2-{[2-(1-methyl-1H-1,2,3-triazol-4-yl)[1,2,4]triazolo[1,5-c]quinazolin-5-yl]amino}butanamide], the IC50 on AHR [1] (firefly luciferase reporter) was 2.94e-06 M; on AHR [2] (read-out: AHR Antagonism Mouse IC50, Hepa 1c1c7 cells, 200 μM kynurenic acid, 20 hours, firefly luciferase reporter) it was 694 nM.

On to `CCCCNC(=O)[C@@H](C)Nc1nc2c(Br)cccc2c2nc(-c3cnn(C)c3)nn12` [Example 794, N^2-[7-bromo-2-(1-methyl-1H-pyrazol-4-yl)[1,2,4]triazolo[1,5-c]quinazolin-5-yl]-N-butyl-D-alaninamide], for which the results for the IC50 against AHR [1] (firefly luciferase reporter) and on AHR [2] (setting [4]) were 1.76e-08 M and 21.2 nM, respectively.

As to `CCCNC(=O)[C@H](C)Nc1nc2c(Br)cccc2c2nc(-c3cnn(C)c3)nn12` [Example 795, N^2-[7-bromo-2-(1-methyl-1H-pyrazol-4-yl)[1,2,4]triazolo[1,5-c]quinazolin-5-yl]-N-propyl-L-alaninamide], the figures for the IC50 against AHR [1] (firefly luciferase reporter) and on AHR [2] (setting [4]) were 2.46e-07 M and 3130 nM, respectively.

As for `CCCNC(=O)[C@@H](C)Nc1nc2c(Br)cccc2c2nc(-c3cnn(C)c3)nn12` [Example 796, N^2-[7-bromo-2-(1-methyl-1H-pyrazol-4-yl)[1,2,4]triazolo[1,5-c]quinazolin-5-yl]-N-propyl-D-alaninamide], the IC50 against AHR [1] (firefly luciferase reporter) amounted to 1.37e-08 M; at AHR [2] (setting [4]), 20.2 nM.
